Laboratory results from US9873680B2 (Gilead Sciences, Inc., priority 2014, dated 2018).
Like-named read-outs stand apart in the source and are kept apart here.

Tests used:
[1] = Test B: Cytotoxicity Assay; type: cell-based; conditions: human, uninfected MT-4 cells, CellTiter-Glo
Method: Test B: Cytotoxicity Assay Compound cytotoxicity and the corresponding CC50 values was determined using the same protocol as described in the antiviral assay (Test A) except that uninfected cells were used.

[2] = tested on: HIV-IIIb; assay: Test A: Antiviral Assay in MT4 Cells; type: cell-based, HIV-1; conditions: for inhibition at 0.2 µM: 0.2 μM drug concentration; for inhibition at 2 µM: 2 μM drug concentration, read-out: Response at 2 μM (percent inhibition of virus-induced cell killing)
How it was run: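 Readout was CellTiter-Glo luminescence after 10 min room-temperature lysis, taken 5 days after plating at 37 °C. The 2000 MT-4 cells per well, mixed 1 h beforehand with HIV-IIIb (m.o.i. 0.003), went straight onto the diluted compound.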

[3] = Human immunodeficiency virus 1, MT4, 120 h, MT-4 cells infected with HIV-IIIb, 5 days, values normalized to 100%, average over time, read-out: % inhibition at 0.2 μM (percent inhibition of virus-induced cell killing)
[4] = Human immunodeficiency virus 1, IIIB, MT4, comparison with previously published compounds, read-out: Response at 0.2 μM (percent inhibition of virus-induced cell killing)
[5] = Human immunodeficiency virus 1, IIIB, MT4, comparison with previously published compounds

Cn1nc(NS(C)(=O)=O)c2cccc(-c3ccc(C#CC4CCCCN4)nc3[C@H](Cc3cc(F)cc(F)c3)NC(=O)Cn3nc(C(F)(F)F)c4c3C(F)(F)[C@@H]3C[C@H]43)c21 (stereo partly drawn) [Compound 36B, 2-((3bS,4aR)-5,5-difluoro-3-(trifluoromethyl)-3b,4,4a,5-tetrahydro-1H-cyclopropa[3,4]cyclopenta[1,2-c]pyrazol-1-yl)-N-((1S)-2-(3,5-difluorophenyl)-1-(3-(1-methyl-3-(methylsulfonamido)-1H-indazol-7-yl)-6-(piperidin-2-ylethynyl)pyridin-2-yl)ethyl)acetamide]
CC50 at 5 days [1]: 6.57 µM
inhibition at 0.2 µM [2, 3]: 83%

NC(=O)c1cc(-c2ccc(C#CC3(O)CC(F)(F)C3)nc2[C@H](Cc2cc(F)cc(F)c2)NC(=O)Cn2nc(C(F)(F)F)c3c2C(F)(F)[C@@H]2C[C@H]32)ccc1F [Compound 107, 5-(6-((3,3-difluoro-1-hydroxycyclobutyl)ethynyl)-2-((S)-1-(2-((3bS,4aR)-5,5-difluoro-3-(trifluoromethyl)-3b,4,4a,5-tetrahydro-1H-cyclopropa[3,4]cyclopenta[1,2-c]pyrazol-1-yl)acetamido)-2-(3,5-difluorophenyl)ethyl)pyridin-3-yl)-2-fluorobenzamide]
CC50 at 5 days [1]: 3.64 µM
inhibition at 0.2 µM [2, 4]: 99%
inhibition at 2 µM [2, 5]: 99%
inhibition at 0.2 µM [2, 3]: 99%

Cn1nc(NS(C)(=O)=O)c2cccc(-c3ccc(C#CC4(O)CCCC4)nc3[C@H](Cc3cc(F)cc(F)c3)NC(=O)Cn3nc(C(F)(F)F)c4c3C(F)(F)[C@@H]3C[C@H]43)c21 [Compound 37, 2-((3bS,4aR)-5,5-difluoro-3-(trifluoromethyl)-3b,4,4a,5-tetrahydro-1H-cyclopropa[3,4]cyclopenta[1,2-c]pyrazol-1-yl)-N—((S)-2-(3,5-difluorophenyl)-1-(6-((1-hydroxycyclopentyl)ethynyl)-3-(1-methyl-3-(methylsulfonamido)-1H-indazol-7-yl)pyridin-2-yl)ethyl)acetamide]
CC50 at 5 days [1]: 8.71 µM
inhibition at 0.2 µM [2, 3]: 80%

Cn1nc(NS(C)(=O)=O)c2c(Cl)ccc(-c3ccc(C#CC4(O)COC4)nc3[C@H](Cc3cc(F)cc(F)c3)NC(=O)Cn3nc(C(F)(F)F)c4c3C(F)(F)[C@@H]3C[C@H]43)c21 [Compound 38, N—((S)-1-(3-(4-chloro-1-methyl-3-(methylsulfonamido)-1H-indazol-7-yl)-6-((3-hydroxyoxetan-3-yl)ethynyl)pyridin-2-yl)-2-(3,5-difluorophenyl)ethyl)-2-((3bS,4aR)-5,5-difluoro-3-(trifluoromethyl)-3b,4,4a,5-tetrahydro-1H-cyclopropa[3,4]cyclopenta[1,2-c]pyrazol-1-yl)acetamide]
CC50 at 5 days [1]: 14.3 µM
inhibition at 0.2 µM [2, 3]: 97%

CC(=O)N1CCCC1C#Cc1ccc(-c2ccc(Cl)c3c(NS(C)(=O)=O)nn(C)c23)c([C@H](Cc2cc(F)cc(F)c2)NC(=O)Cn2nc(C(F)(F)F)c3c2C(F)(F)[C@@H]2C[C@H]32)n1 (stereo partly drawn) [Compound 55, N-((1S)-1-(6-((1-acetylpyrrolidin-2-yl)ethynyl)-3-(4-chloro-1-methyl-3-(methylsulfonamido)-1H-indazol-7-yl)pyridin-2-yl)-2-(3,5-difluorophenyl)ethyl)-2-((3bS,4aR)-5,5-difluoro-3-(trifluoromethyl)-3b,4,4a,5-tetrahydro-1H-cyclopropa[3,4]cyclopenta[1,2-c]pyrazol-1-yl)acetamide]
CC50 at 5 days [1]: 9.94 µM
inhibition at 0.2 µM [2, 3]: 88%

CN1CCN(C(C)(C)C#Cc2ccc(-c3ccc(Cl)c4c(NS(C)(=O)=O)nn(C)c34)c([C@H](Cc3cc(F)cc(F)c3)NC(=O)Cn3nc(C(F)(F)F)c4c3C(F)(F)[C@@H]3C[C@H]43)n2)CC1 [Compound 41, N—((S)-1-(3-(4-chloro-1-methyl-3-(methylsulfonamido)-1H-indazol-7-yl)-6-(3-methyl-3-(4-methylpiperazin-1-yl)but-1-yn-1-yl)pyridin-2-yl)-2-(3,5-difluorophenyl)ethyl)-2-((3bS,4aR)-5,5-difluoro-3-(trifluoromethyl)-3b,4,4a,5-tetrahydro-1H-cyclopropa[3,4]cyclopenta[1,2-c]pyrazol-1-yl)acetamide]
CC50 at 5 days [1]: 2.08 µM
inhibition at 0.2 µM [2, 3]: 98%

N#Cc1ccc(C#Cc2ccc(-c3ccc4c(c3)C(=O)NC4)c([C@H](Cc3cc(F)cc(F)c3)NC(=O)Cn3nc(C(F)(F)F)c4c3C(F)(F)[C@@H]3C[C@H]43)n2)cc1 [Compound 9, N—((S)-1-(6-((4-cyanophenyl)ethynyl)-3-(3-oxoisoindolin-5-yl)pyridin-2-yl)-2-(3,5-difluorophenyl)ethyl)-2-((3bS,4aR)-5,5-difluoro-3-(trifluromethyl)-3b,4,4a,5-tetrahydro-1H-cyclopropa[3,4]cyclopenta[1,2-c]pyrazol-1-yl)acetamide]
CC50 at 5 days [1]: > 53.2 µM
inhibition at 0.2 µM [2, 3]: 25%

Cn1nc(NS(C)(=O)=O)c2c(Cl)ccc(-c3ccc(C#CC(C)(C)N4CCOC4=O)nc3[C@H](Cc3cc(F)cc(F)c3)NC(=O)Cn3nc(C(F)(F)F)c4c3C(F)(F)[C@@H]3C[C@H]43)c21 [Compound 63, N—((S)-1-(3-(4-chloro-1-methyl-3-(methylsulfonamido)-1H-indazol-7-yl)-6-(3-methyl-3-(2-oxooxazolidin-3-yl)but-1-yn-1-yl)pyridin-2-yl)-2-(3,5-difluorophenyl)ethyl)-2-((3bS,4aR)-5,5-difluoro-3-(trifluoromethyl)-3b,4,4a,5-tetrahydro-1H-cyclopropa[3,4]cyclopenta[1,2-c]pyrazol-1-yl)acetamide]
CC50 at 5 days [1]: 20.7 µM
inhibition at 0.2 µM [2, 3]: 90%

Cn1nc(NS(C)(=O)=O)c2c(Cl)ccc(-c3ccc(C#CC4CC4)nc3[C@H](Cc3cc(F)cc(F)c3)NC(=O)Cn3nc(C(F)F)c4c3C(F)(F)[C@@H]3C[C@H]43)c21 [Compound 96, N—((S)-1-(3-(4-chloro-1-methyl-3-(methylsulfonamido)-1H-indazol-7-yl)-6-(cyclopropylethynyl)pyridin-2-yl)-2-(3,5-difluorophenyl)ethyl)-2-((3bS,4aR)-3-(difluoromethyl)-5,5-difluoro-3b,4,4a,5-tetrahydro-1H-cyclopropa[3,4]cyclopenta[1,2-c]pyrazol-1-yl)acetamide]
CC50 at 5 days [1]: 20.1 µM
inhibition at 0.2 µM [2, 4]: 82%
inhibition at 2 µM [2, 5]: 82%
inhibition at 0.2 µM [2, 3]: 82%

Cn1nc(NS(C)(=O)=O)c2c(Cl)ccc(-c3ccc(C#CC4(O)CCOCC4)nc3[C@H](Cc3cc(F)cc(F)c3)NC(=O)Cn3nc(C(F)F)c4c3C(F)(F)[C@@H]3C[C@H]43)c21 [Compound 40, N—((S)-1-(3-(4-chloro-1-methyl-3-(methylsulfonamido)-1H-indazol-7-yl)-6-((4-hydroxytetrahydro-2H-pyran-4-yl)ethynyl)pyridin-2-yl)-2-(3,5-difluorophenyl)ethyl)-2-((3bS,4aR)-3-(difluoromethyl)-5,5-difluoro-3b,4,4a,5-tetrahydro-1H-cyclopropa[3,4]cyclopenta[1,2-c]pyrazol-1-yl)acetamide]
CC50 at 5 days [1]: 17 µM
inhibition at 0.2 µM [2, 3]: 96%

COc1ccc(C#Cc2ccc(-c3ccc4c(c3)C(=O)NC4)c([C@H](Cc3cc(F)cc(F)c3)NC(=O)Cn3nc(C(F)(F)F)c4c3C(F)(F)[C@@H]3C[C@H]43)n2)cn1 [Compound 10C, 2-((3bS,4aR)-5,5-difluoro-3-(trifluoromethyl)-3b,4,4a,5-tetrahydro-1H-cyclopropa[3,4]cyclopenta[1,2-c]pyrazol-1-yl)-N—((S)-2-(3,5-difluorophenyl)-1-(6-((6-methoxypyridin-3-yl)ethynyl)-3-(3-oxoisoindolin-5-yl)pyridin-2-yl)ethyl)acetamide]
CC50 at 5 days [1]: > 51.9 µM
inhibition at 0.2 µM [2, 3]: 21%

Cn1nc(NS(C)(=O)=O)c2c(Cl)ccc(-c3ccc(C#CC(C)(O)c4ccco4)nc3[C@H](Cc3cc(F)cc(F)c3)NC(=O)Cn3nc(C(F)(F)F)c4c3C(F)(F)[C@@H]3C[C@H]43)c21 (stereo partly drawn) [Compound 54, N-((1S)-1-(3-(4-chloro-1-methyl-3-(methylsulfonamido)-1H-indazol-7-yl)-6-(3-(furan-2-yl)-3-hydroxybut-1-yn-1-yl)pyridin-2-yl)-2-(3,5-difluorophenyl)ethyl)-2-((3bS,4aR)-5,5-difluoro-3-(trifluoromethyl)-3b,4,4a,5-tetrahydro-1H-cyclopropa[3,4]cyclopenta[1,2-c]pyrazol-1-yl)acetamide]
CC50 at 5 days [1]: 11.6 µM
inhibition at 0.2 µM [2, 3]: 100%

CN1CC(NC(C)(C)C#Cc2ccc(-c3ccc(Cl)c4c(NS(C)(=O)=O)nn(C)c34)c([C@H](Cc3cc(F)cc(F)c3)NC(=O)Cn3nc(C(F)(F)F)c4c3C(F)(F)[C@@H]3C[C@H]43)n2)C1 [Compound 42, N—((S)-1-(3-(4-chloro-1-methyl-3-(methylsulfonamido)-1H-indazol-7-yl)-6-(3-methyl-3-((1-methylazetidin-3-yl)amino)but-1-yn-1-yl)pyridin-2-yl)-2-(3,5-difluorophenyl)ethyl)-2-((3bS,4aR)-5,5-difluoro-3-(trifluoromethyl)-3b,4,4a,5-tetrahydro-1H-cyclopropa[3,4]cyclopenta[1,2-c]pyrazol-1-yl)acetamide]
CC50 at 5 days [1]: 2.77 µM
inhibition at 0.2 µM [2, 3]: 90%

Cn1cnc(C(O)C#Cc2ccc(-c3ccc(Cl)c4c(NS(C)(=O)=O)nn(C)c34)c([C@H](Cc3cc(F)cc(F)c3)NC(=O)Cn3nc(C(F)(F)F)c4c3C(F)(F)[C@@H]3C[C@H]43)n2)c1 (stereo partly drawn) [Compound 56B, N-((1S)-1-(3-(4-chloro-1-methyl-3-(methylsulfonamido)-1H-indazol-7-yl)-6-(3-hydroxy-3-(1-methyl-1H-imidazol-4-yl)prop-1-yn-1-yl)pyridin-2-yl)-2-(3,5-difluorophenyl)ethyl)-2-((3bS,4aR)-5,5-difluoro-3-(trifluoromethyl)-3b,4,4a,5-tetrahydro-1H-cyclopropa[3,4]cyclopenta[1,2-c]pyrazol-1-yl)acetamide]
CC50 at 5 days [1]: 9.02 µM
inhibition at 0.2 µM [2, 3]: 84%
